The values that follow come from patent publication US9920037B2, “Diaryl isoxazoline compound” (Elanco Tiergesundheit AG, priority 2014, dated 2018).

The structures appear in SMILES notation.

Experiment [1] concerns sea lice Lepeophtheirus salmonis. In words: Activity in vivo against copepodids (Lepeophtheirus salmonis) on Atlantic salmon, medicated feed. The following applies: Atlantic salmon (Salmo salar L.), medicated feed 1 mg/kg/day for 7 consecutive days; counted 10 days after treatment end. The procedure:
The study used two groups of 45 Atlantic salmon (Salmo salar L.), each, with an average weight of 400 g per fish. Fish were challenged with sea lice copepodids Lepeophtheirus salmonis) (Cohort I). When cohort I reached pre-adult stage, all fish were challenged with a second cohort of sea lice copepodids (Cohort II).
Treatment was initiated when sea lice in cohort I became pre-adult/adults and sea lice in cohort II were early chalimus stages:
One group was treated with medicated feed-pellet containing the (S)-enantiomer of the compound of formula (I) at 1 mg/kg/day, during 7 consecutive days. One group was a placebo control group. The medicated pellets were prepared by dry coating commercially available fish feed pellets with a pre-mix containing the (S)-enantiomer of the compound of formula (I) to reach a content of 0.02% (w/w) active ingredient in the fish feed.
Sea lice were counted 10 days after treatment end.

The subject of experiment [2] is Lepeophtheirus salmonis copepodids. In words: Activity in vitro against Lepeophtheirus salmonis at copepodid stage. The experiment is classed as cell-based. The following applies: 0.16 ng/ml sea water; 1 hour contact, then 48 h in untreated sea water. The procedure: Sea lice copepodids were used to seed a 96-well plate containing the test substances to be evaluated for antiparasitic activity. The racemic compound of formula (I) according to the present invention and the racemic compound No. 1.48 according to WO2010/070068, page 47 were tested by serial dilution in order to determine its minimal effective dose (MED). Copepodids were left in contact with each test compound diluted in sea water for 1 hour. They were then incubated in untreated sea water for 48 h. Efficacy against sea lice was then confirmed if no copepodid moved over a period of 80 seconds.

Experiment [3] concerns Rhipicephalus sanguineus nymphs. The experiment can be described thus: Activity in vivo against Rhipicephalus sanguineus nymphs on Mongolian gerbils (spray application). Conditions: 1.0 mg/kg animal biomass, Mongolian gerbils (Meriones unguiculatus). The procedure: On day 0, gerbils are treated with the respective test compound at a given dose by spray application. On day +1 (+2), the animals are infested with nymphs of R. sanguineus. Ticks are left on the animals until full repletion. Seven days after infestation nymphs dropped off fully engorged are collected and counted. Efficacy in killing is expressed as a tick number reduction in comparison with a placebo treated group, using the Abbot's formula.

Experiment [4] relates to adult R. sanguineus ticks. In words: Activity in vivo against Rhipicephalus sanguineus ticks (dog tick) on rabbits. Conditions: spray application on ears; for threshold concentration where the efficacy drops below 90%: rabbits. The protocol:
On day 0, rabbits are treated with the test compound at a given dose by spray application on their ears only. On day +1, the animals are infested on their ears with adult R. sanguineus ticks (sex ratio 1:1). Evaluation of efficacy is performed 24 h, 48 h, and 72 h after infestation by counting the numbers of dead and live ticks recovered from the animals. Efficacy is expressed as comparison with a placebo treated group using the Abbot's formula. Infestations can be repeated at weekly intervals until efficacy drops. The racemic compound of formula (I) according to the present invention and the racemic compound No. 1.48 according to WO2010/070068, page 47 were tested at different concentrations in order to determine the threshold concentration where the efficacy drops below 90%.

With `C#CCNC(=O)CNC(=O)c1sc(C2=NO[C@@](c3cc(Cl)c(Cl)c(Cl)c3)(C(F)(F)F)C2)cc1C` [(S)-enantiomer of the compound of formula (I)], in experiment [1], the “efficacy (sea lice count)” value is recorded as 100%.

On to `C#CCNC(=O)CNC(=O)c1sc(C2=NOC(c3cc(Cl)c(Cl)c(Cl)c3)(C(F)(F)F)C2)cc1C` (racemic) [racemic compound of formula (I)], for which the “efficacy (no copepodid moved over 80 seconds)” value in experiment [2] is 100%. In addition, the “efficacy (tick number reduction vs placebo, Abbot's formula)” value in experiment [3] stood at 87%. Further, the “efficacy (vs placebo, Abbot's formula)” value in experiment [4] (3 mg/m^2, rabbits) amounted to 73%; in experiment [4] (7.5 mg/m^2, rabbits), 93%. Moreover, the “threshold concentration where the efficacy drops below 90%” value in experiment [4] stood at 3 mg/m^2.

In the case of `C#CCNC(=O)CNC(=O)c1sc(C2=NOC(c3cc(Cl)cc(Cl)c3)(C(F)(F)F)C2)cc1C` (racemic) [racemic compound No. 1.48, reference compound], the “efficacy (no copepodid moved over 80 seconds)” value in experiment [2] was 0%. In addition, the “efficacy (tick number reduction vs placebo, Abbot's formula)” value in experiment [3] came to 77%. In addition, in experiment [4] (15 mg/m^2, rabbits), the “efficacy (vs placebo, Abbot's formula)” value was found to be 82%. For the same compound, in experiment [4], the “threshold concentration where the efficacy drops below 90%” value is given as 15 mg/m^2.
